Data published in US4462992A, “Nitroimidazole radiosensitizers for hypoxic tumor cells and compositions thereof” (priority 1982, dated 1984).
Where two headings read alike, the source gives them in different places.

Columns and labels:
[1] = Pharmacokinetics, localization in tissue in mice bearing B16 melanoma; assay type: in vivo, mouse (C57/BL); conditions: for concentration at 0.5 h / concentration at 1 h / Kp at 0.5 h / Kp at 1 h: mouse, ip, 1000 mg/kg; for concentration at 0.5 h / concentration at 1 h: 1 g/kg intraperitoneal
Protocol: The drug solution was made in normal saline at a concentration of 50 mg/ml. The drug solution was injected intraperitoneally at a dose level of 1 g/kg to C57/BL mice bearing 15 day old B16 melanoma tumor. At 30 and 60 minute interval after the drug administration, mice were anesthetized, blood sample was taken directly by heart puncture and tumor and brain tissue were removed. Plasma was separated after centrifugation of the whole blood and extracted with methanol. Brain and tumor tissue were homogenized and also extracted with methanol. The methanol extracts were analyzed by reverse phase high-performance liquid chromatography employing 25% methanol as mobile phase. The peak was detected at 320 nm with a retention time of 2.3 min. The flow rate was 2 ml/min.

[2] = tested on: hypoxic tumor cells; conditions: cited from earlier work
[3] = tested on: Chinese hamster cells line V-79; assay: Radiosensitization (enhancement ratio, cobalt-60 irradiation of hypoxic cells); assay type: cell-based
Protocol: (§1) Asynchronous monolayers of cultures of Chinese hamster cells line V-79 were employed in all experiments. The monolayers were derived from exponentially growing cultures. Methods of culturing and handling have been reported earlier by Cooke et al, Rad. Res. 65, 152 (1976). The plated cultures were rendered hypoxic in sealed dural containers capable of holding seven petri dishes, by purging with nitrogen (oxygen-free grade) for one hour. Irradiation was carried out by using a cobalt-60 source at a dose rate of approximately 240 rad/min according to the procedure described by Agrawal et al Rad. Res. 78:532 (1979). A dose of 1400 rad was given to hypoxic cells in glass petri dishes in the presence of a given drug concentration (2000 cells/dish). Cell survival was estimated from unirradiated toxic hypoxic cells exposed to the same drug concentration. Complete survival curves were obtained for each compound at the radiation doses of 400 to 3000 rad. The Do value was calculated for each compound and the ratio of the Do value for the hypoxic control cells to the Do value of the hypoxic drug treated cells provided the sensitized enhancement ratio of the corresponding agent.
(§2) Cultures were incubated for 6 days at 37° C. in an atmosphere of 5% CO2. The resulting colonies were fixed in absolute ethanol and stained with methylene blue and counted.

[4] = In vitro cytotoxicity in oxic cells (% survival); assay type: cell-based, Chinese hamster; conditions: hamster, v-79 cells, oxic; for viability at 2 h, 1000 µM: 1.0 mM; for viability at 2 h, 5000 µM: 5.0 mM
Protocol: as §1, §2
(§3) To determine toxicity in vitro, glass petri dishes containing approximately 200 Chinese hamster cells/dish were exposed to a range of concentrations of each drug for 2 hours and/or 4 hours at 37° C. Drug concentrations between 10 μM and 0.5 mM were employed initially.

[5] = In vitro cytotoxicity in hypoxic cells (% survival); assay type: cell-based, Chinese hamster; conditions: hamster, v-79 cells; for viability at 2 h, 100 µM / viability at 4 h, 100 µM: 0.1 mM; for viability at 2 h, 50 µM / viability at 4 h, 50 µM: 0.05 mM; for viability at 2 h, 250 µM / viability at 4 h, 250 µM: 0.25 mM
Protocol: as §1, §2, §3

[6] = tested on: hypoxic cells (Chinese hamster cells line V-79); assay: Differential toxicity to hypoxic cells at 4 hours; assay type: cell-based
Protocol: as §1, §3

[7] = tested on: Chinese hamster cells line V-79 (oxic); assay: In vitro cytotoxicity in oxic cells (% survival); assay type: cell-based; conditions: 2 hours
Protocol: as §1, §2, §3

[8] = 2 hours, 0.1 mM, read-out: In vitro cytoxicity in oxic cells (% survival at 2 hours)
[9] = 2 hours, 0.5 mM, read-out: In vitro cytoxicity in oxic cells (% survival at 2 hours)
[10] = 2 hours, read-out: In vitro cytoxicity in hypoxic cells (% survival at 2 hours)
[11] = 4 hours, read-out: In vitro cytoxicity in hypoxic cells (% survival at 4 hours)
[12] = 2 hours, read-out: In vitro cytoxicity in oxic cells (% survival at 2 hours)
[13] = 4 hours, 0.01 mM, read-out: In vitro cytoxicity in hypoxic cells (% survival at 4 hours)

Compound: O=[N+]([O-])c1nccn1[C@@H]1C=C[C@H](O)[C@@H](CO)O1 [1-(2',3'-didehydro-2',3'-dideoxy-α-D-erythro-hexopyranosyl)-2-nitroimidazole]
- tumor concentration relative to brain (Tumor/Brain ratio) ([1]; 30 and 60 min): approximately 3 fold
- Ratio of Brain/Plasma, change with time ([1]; 30 to 60 min): increased with time
- Ratio of Tumor/Plasma, change with time ([1]; 30 to 60 min): increased with time
- Ratio of Tumor/Brain ([1]; 30 min): 2.87
- Ratio of Tumor/Brain ([1]; 60 min): 2.88
- concentration at 0.5 h ([1]; b16 melanoma tumor, tumor, 30 min, read-out: (B16 melanoma)): 293000 ng/g
- concentration at 1 h ([1]; b16 melanoma tumor, tumor, 60 min, read-out: (B16 melanoma)): 346000 ng/g
- concentration at 0.5 h ([1]; brain, 30 min, read-out: Brain): 102000 ng/g
- concentration at 1 h ([1]; brain, 60 min, read-out: Brain): 120000 ng/g
- Kp at 0.5 h ([1]; brain/plasma, 30 min, read-out: Ratio of Brain/Plasma): 0.097
- Kp at 1 h ([1]; brain/plasma, 60 min, read-out: Ratio of Brain/Plasma): 0.18
- concentration at 0.5 h ([1]; plasma, 30 min, read-out: Plasma): 1050 µg/mL
- concentration at 1 h ([1]; plasma, 60 min, read-out: Plasma): 648 µg/mL
- Kp at 0.5 h ([1]; tumor/plasma, 30 min, read-out: Ratio of Tumor/plasma): 0.278
- Kp at 1 h ([1]; tumor/plasma, 60 min, read-out: Ratio of Tumor/plasma): 0.534

Compound: O=c1[nH]c(=O)n([C@H]2C[C@H](O)[C@@H](CO)O2)cc1Br [5-bromodeoxyuridine]
- selectivity for tumor cells [2]: poor selectivity

Compound: O=c1[nH]c(=O)n([C@H]2C[C@H](O)[C@@H](CO)O2)cc1F [5-flourodeoxyuridine]
- selectivity for tumor cells [2]: poor selectivity

Compound: CC(=O)OC[C@H]1O[C@H](n2ccnc2[N+](=O)[O-])C=C[C@@H]1OC(C)=O [B, 1(4',6di-O--acetyl2',3didehydro-2',3dideoxy-D-erythro-hexopyranosyl)-2-ni roimidazole]
- Radiosensitization (enhancement ratio in Chinese hamster cells) ([3]; 0.5 mM): 2.0
- viability at 2 h, 10 µM ([4]; 2 hours, 0.01 mM, read-out: In vitro cytoxicity in oxic cells (% survival at 2 hours)): 106%
- viability at 2 h, 50 µM ([4]; 2 hours, 0.05 mM, read-out: In vitro cytoxicity in oxic cells (% survival at 2 hours)): 100%
- viability at 2 h, 100 µM [4, 8]: 103%
- viability at 2 h, 500 µM [4, 9]: 100%
- viability at 4 h, 10 µM ([4]; 4 hours, 0.01 mM, read-out: In vitro cytoxicity in oxic cells (% survival at 4 hours)): 100%
- viability at 4 h, 50 µM ([4]; 4 hours, 0.05 mM, read-out: In vitro cytoxicity in oxic cells (% survival at 4 hours)): 100%
- viability at 4 h, 100 µM ([4]; 4 hours, 0.1 mM, read-out: In vitro cytoxicity in oxic cells (% survival at 4 hours)): 101%
- viability at 4 h, 500 µM ([4]; 4 hours, 0.5 mM, read-out: In vitro cytoxicity in oxic cells (% survival at 4 hours)): 102%
- viability at 2 h, 100 µM [5, 10]: 90.9%
- viability at 2 h, 500 µM ([5]; 2 hours, 0.5 mM, read-out: In vitro cytoxicity in hypoxic cells (% survival at 2 hours)): 100%
- viability at 4 h, 100 µM [5, 11]: 96%
- viability at 4 h, 500 µM ([5]; 4 hours, 0.5 mM, read-out: In vitro cytoxicity in hypoxic cells (% survival at 4 hours)): 60.3%
- Differential toxicity to hypoxic cells at 4 hours [6]: Yes

Compound: O=[N+]([O-])c1nccn1C1O[C@H](CO)[C@@H](O)[C@@H]1O (stereo partly drawn) [D, 1(D-Arabinofuranosyl)-2-nitroimidazole]
- Radiosensitization (enhancement ratio in Chinese hamster cells) ([3]; 1.0 mM): 1.7
- viability at 2 h, 100 µM [4, 8]: 105%
- viability at 2 h, 500 µM [4, 9]: 104%
- viability at 2 h, 1000 µM [4, 12]: 99%
- viability at 2 h, 5000 µM [4, 12]: 116%

Compound: O=C(OC[C@H]1O[C@H](n2ccnc2[N+](=O)[O-])[C@@H](OC(=O)c2ccccc2)[C@@H]1OC(=O)c1ccccc1)c1ccccc1 [E, 1(2',3',5tri-O--benzoylD-arabinofuranosyl)-2-nitroimidazole]
- Radiosensitization (enhancement ratio in Chinese hamster cells) ([3]; 0.05 (mM not given)): 1.0
- viability at 2 h, 50 µM [5, 10]: 84%
- viability at 2 h, 250 µM [5, 10]: 12%
- viability at 4 h, 10 µM [5, 13]: 80%
- viability at 4 h, 50 µM [5, 11]: 76%
- viability at 4 h, 100 µM [5, 11]: 46%
- viability at 4 h, 250 µM [5, 11]: 2.6%

Compound: O=C(OC[C@H]1O[C@@H](n2ccnc2[N+](=O)[O-])[C@@H](OC(=O)c2ccccc2)[C@@H]1OC(=O)c1ccccc1)c1ccccc1 [F, 1(2',3',5tri-O--benzoylD-arabinofuranosyl)-2-nitroimidazole]
- Radiosensitization (enhancement ratio in Chinese hamster cells) ([3]; 0.1 mM): 1.1
- viability at 2 h, 10 µM ([5]; 2 hours, 0.01 mM, read-out: In vitro cytoxicity in hypoxic cells (% survival at 2 hours)): 102%
- viability at 2 h, 50 µM [5, 10]: 102%
- viability at 2 h, 100 µM [5, 10]: 97%
- viability at 2 h, 250 µM [5, 10]: 105%
- viability at 4 h, 10 µM [5, 13]: 103%
- viability at 4 h, 50 µM [5, 11]: 104%
- viability at 4 h, 100 µM [5, 11]: 89%
- viability at 4 h, 250 µM [5, 11]: 73%

Compound: O=[N+]([O-])c1nccn1C1C[C@H](O)[C@@H](CO)O1 (stereo partly drawn) [G, 1(2-deoxy-D-erythro-pentofuranosyl)-2-nitroimidazole]
- Radiosensitization (enhancement ratio in Chinese hamster cells) ([3]; 1.0 mM): 1.9
- viability at 2 h, 100 µM [4, 8]: 95.3%
- viability at 2 h, 500 µM [4, 9]: 88.9%
- viability at 2 h, 1000 µM [4, 12]: 93%
- viability at 2 h, 5000 µM [4, 12]: 82.4%

Compound: O=[N+]([O-])c1nccn1C1C[C@H](O)[C@@H](CO)O1 (stereo partly drawn) [H, 1(2-deoxy-D-erythro-pentofuranosyl)-2-nitroimidazole]
- Radiosensitization (enhancement ratio in Chinese hamster cells) ([3]; 1.0 mM): 1.9
- In vitro cytoxicity in oxic cells (% survival at 2 hours) ([7]; 0.1 mM): 95.3%
- In vitro cytoxicity in oxic cells (% survival at 2 hours) ([7]; 0.5 mM, 120 min, 500 µM): 94.2%
- In vitro cytoxicity in oxic cells (% survival at 2 hours) ([7]; 1.0 mM, 120 min, 1000 µM): 98.2%
- In vitro cytoxicity in oxic cells (% survival at 2 hours) ([7]; 5.0 mM, 120 min, 5000 µM): 81.3%

Compound: O=[N+]([O-])c1nccn1C1CCCO1 (stereo not shown) [I, 1-(Tetrahydro-2-furanyl)-2-nitroimidazole]
- Radiosensitization (enhancement ratio in Chinese hamster cells) ([3]; 1.0 mM): 1.6
- viability at 2 h, 100 µM [4, 8]: 98.8%
- viability at 2 h, 500 µM [4, 9]: 101%
- viability at 2 h, 1000 µM [4, 12]: 87.1%
- viability at 2 h, 5000 µM [4, 12]: 79.5%

Compound: O=[N+]([O-])c1nccn1C1CCCCO1 (stereo not shown) [J, 1-(Tetrahydro-2-pyranyl)-2-nitroimidazole]
- Radiosensitization (enhancement ratio in Chinese hamster cells) ([3]; 1.0 mM): 1.7
- viability at 2 h, 100 µM [4, 8]: 106%
- viability at 2 h, 500 µM [4, 9]: 101%
- viability at 2 h, 1000 µM [4, 12]: 105%
- viability at 2 h, 5000 µM [4, 12]: 94.9%

Compound: O=[N+]([O-])c1nccn1C1CCCC1O (stereo not shown) [K, 1-(2-Hydroxycyclopentyl)-2-nitroimidazole]
- Radiosensitization (enhancement ratio in Chinese hamster cells) ([3]; 1.0 mM): 2.0
- viability at 2 h, 100 µM [4, 8]: 112%
- viability at 2 h, 500 µM [4, 9]: 110%
- viability at 2 h, 1000 µM [4, 12]: 107%
- viability at 2 h, 5000 µM [4, 12]: 94.7%

Compound: O=[N+]([O-])c1nccn1C1CCCCC1O (stereo not shown) [L, 1-(2-Hydroxycyclohexyl)-2-nitroimidazole]
- Radiosensitization (enhancement ratio in Chinese hamster cells) ([3]; 1.0 mM): 2.0
- viability at 2 h, 100 µM [4, 8]: 98.2%
- viability at 2 h, 500 µM [4, 9]: 90.3%
- viability at 2 h, 1000 µM [4, 12]: 86%

Compound: O=[N+]([O-])c1nccn1COCCO [M, 1-[(2-hydroxyethoxy)methyl]-2-nitroimidazole]
- Radiosensitization (enhancement ratio in Chinese hamster cells) ([3]; 1.0 mM): 2.1
- viability at 2 h, 100 µM [4, 8]: 99.5%
- viability at 2 h, 500 µM [4, 9]: 106%
- viability at 2 h, 1000 µM [4, 12]: 104%
